Test [1] addresses T1, androgen receptor (AdEasy+rAR, L929 cells) (Rattus norvegicus, UniProt P15207).
T1 construct: expressed in transfected cells; host or cells: L929 cells transduced with adenovirus AdEasy+rAR
T1 sequence (P15207 1-902): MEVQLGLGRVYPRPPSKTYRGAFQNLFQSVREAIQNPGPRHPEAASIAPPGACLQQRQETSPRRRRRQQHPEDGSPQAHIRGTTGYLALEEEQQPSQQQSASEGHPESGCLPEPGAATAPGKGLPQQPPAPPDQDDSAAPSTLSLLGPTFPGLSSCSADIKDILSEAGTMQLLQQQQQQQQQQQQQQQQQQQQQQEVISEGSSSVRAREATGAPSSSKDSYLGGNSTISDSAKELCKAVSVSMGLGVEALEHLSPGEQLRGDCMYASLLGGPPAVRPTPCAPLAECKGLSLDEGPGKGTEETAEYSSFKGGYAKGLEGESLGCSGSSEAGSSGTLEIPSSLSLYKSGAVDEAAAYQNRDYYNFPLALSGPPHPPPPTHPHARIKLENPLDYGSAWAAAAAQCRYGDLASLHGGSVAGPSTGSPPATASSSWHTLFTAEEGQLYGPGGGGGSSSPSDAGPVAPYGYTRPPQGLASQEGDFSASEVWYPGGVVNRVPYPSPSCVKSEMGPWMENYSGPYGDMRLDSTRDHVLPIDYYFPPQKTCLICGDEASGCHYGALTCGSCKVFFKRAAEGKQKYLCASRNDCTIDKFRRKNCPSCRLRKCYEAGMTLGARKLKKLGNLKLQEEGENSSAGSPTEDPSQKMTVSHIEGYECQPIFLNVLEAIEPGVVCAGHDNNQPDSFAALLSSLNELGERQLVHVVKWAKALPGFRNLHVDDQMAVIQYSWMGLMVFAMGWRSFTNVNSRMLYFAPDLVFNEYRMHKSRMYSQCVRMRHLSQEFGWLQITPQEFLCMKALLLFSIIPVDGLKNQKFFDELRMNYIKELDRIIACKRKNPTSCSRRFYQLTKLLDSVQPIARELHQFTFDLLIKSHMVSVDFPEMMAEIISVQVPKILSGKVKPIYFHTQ
As to the kind of experiment: L929 Androgen Receptor Functional Assay, Adenovirus Transduction. The format is cell-based. To be noted: for inhibition at 3 µM: L929, antagonist testing with R1881, 3000 nM; for % Activity, L929 androgen receptor functional assay: agonist testing, 3000 nM; for % Inhibition, L929 androgen receptor functional assay: antagonist testing with R1881, 3000 nM. Put shortly: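 L929 cells in phenol red-free, charcoal-stripped serum medium transduced with AdEasy+rAR (moi 1:500) and exposed 48 h at 37 °C to compound alone (agonist mode) or with R1881 (antagonist mode; 2.5 nM as the 2.5× dilution).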

Test [2] addresses T2, androgen receptor (AdEasy+rAR, COS-7 cells) (Rattus norvegicus, UniProt P15207).
T2 construct: expressed in transfected cells; host or cells: COS-7 cells transduced with adenovirus AdEasy+rAR
T2 sequence (P15207 1-902): T1 sequence (P15207 1-902)
As to the kind of experiment: COS-7 Whole-Cell Androgen Receptor Binding Assay, Adenovirus Transduction. To be noted: for inhibition at 3 µM / % Inhibition, COS Binding: concentration of 3000 nM; for % Inhibition, COS Binding: 3 µM. Put shortly:
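COS-7 cells in phenol red-free DMEM/F12 with 10% charcoal-treated FBS were transduced with AdEasy+rAR adenovirus (moi 1:50 per well), exposed to test compound in duplicate and incubated for 48 h at 37° C. Cells were then lysed in 0.5% Triton X-100 and bound radioactivity counted by scintillation.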

The mark [3] stands for this setting: read-out: IC50 (nM), COS Binding.

Several values for one entry are separate records, joined by “and”; a condition that tells them apart may be missing. Identical values can stand only once. Like-named read-outs stand apart in the source and are kept apart here.

Consider `CC(O)(CS(=O)(=O)c1ccc(O)cc1)c1cc2cc(Cl)c(C(F)(F)F)cc2[nH]1` (centres unmarked) [Compound 121], for which, in test [1], the inhibition at 3 µM came to 54% and the “% Activity, L929 androgen receptor functional assay” value (from here on “% Activity”) is listed as −4%. In addition, the inhibition at 3 µM in test [2] is 72%. Further, the IC50 in test [2] (setting [3]) is > 1800 nM.
Regarding `CCSCC(C)(O)c1cc2cc([N+](=O)[O-])c(C(F)(F)F)cc2[nH]1` (racemic) [Compound 142], the inhibition at 3 µM in test [1] was determined as 78%; in test [2], 90%. Besides, the “% Activity” value in test [1] amounted to 0%. In test [2] (setting [3]), the IC50 was determined as 220 nM.
With `CCC(O)(CS(=O)(=O)CC)c1cc2cc([N+](=O)[O-])c(C(F)(F)F)cc2[nH]1` (centres unmarked) [Compound 176], the figures for the inhibition at 3 µM in test [1] and in test [2] were 81% and 75%, respectively. The “% Activity” value in test [1] was determined as 3%.
`CCSCC(O)c1cc2cc([N+](=O)[O-])c(C(F)(F)F)cc2[nH]1` (centres unmarked) [Compound 158] registered an inhibition at 3 µM in test [1] of 21%. Also, in test [1] (3 µM), the “% Activity” value was 3% and 2%; the “% Inhibition, L929 androgen receptor functional assay” value is recorded as 29%. Moreover, in test [2], the inhibition at 3 µM was 62% and the “% Inhibition, COS Binding” value worked out at 56%. Further, the IC50 in test [2] (setting [3]) is 160 nM and 550 nM.
Regarding `CSCCC(C)(O)c1cc2cc([N+](=O)[O-])c(C(F)(F)F)cc2[nH]1` (centres unmarked) [Compound 47], in test [1], the inhibition at 3 µM turned out to be 75% and the “% Activity” value is 2%. This molecule also gave an inhibition at 3 µM in test [2] of 78%. Also, in test [2] (setting [3]), the IC50 is > 1000 nM.
`CC(O)(CSc1ccc(N)cc1)c1cc2cc(Cl)c(C(F)(F)F)cc2[nH]1` (centres unmarked) [Compound 104]: the inhibition at 3 µM worked out at 18% in test [1] and 94% in test [2]. In addition, the “% Activity” value in test [1] was 9%.
Turning to `CC(O)(CSC1CCCC1)c1cc2cc([N+](=O)[O-])c(C(F)(F)F)cc2[nH]1` (centres unmarked) [Compound 173], in test [1], the inhibition at 3 µM came to 40% and the “% Activity” value was found to be 2%. The inhibition at 3 µM in test [2] turned out to be 17%. Also, the IC50 in test [2] (setting [3]) is > 3000 nM.
For `CCSCC(O)(CC)c1cc2cc([N+](=O)[O-])c(C(F)(F)F)cc2[nH]1` (centres unmarked) [Compound 169] the same measures were 98%, 2%, 90% and 48 nM.
In the case of `CCS(=O)(=O)C[C@](C)(O)c1cc2cc([N+](=O)[O-])c(C(F)(F)F)cc2[nH]1` [Compound 156, 1-Ethanesulfonyl-2-(5-nitro-6-trifluoromethyl-1H-indol-2-yl)-propan-2-ol], in test [1], the inhibition at 3 µM is 35% and the “% Activity” value is 2%. Moreover, the “% Inhibition, L929 androgen receptor functional assay” value in test [1] (3 µM) amounted to 23%. The IC50 in test [2] (IC50 (nM), COS Binding) was > 1000 nM. Further, in test [2], the inhibition at 3 µM turned out to be 42% and the “% Inhibition, COS Binding” value came to 52%.
Regarding `CC(O)(CS(C)(=O)=O)c1cc2cc(Cl)c(C(F)(F)F)cc2[nH]1` (centres unmarked) [Compound 138], the inhibition at 3 µM in test [1] was 19%; in test [2], 78%. Moreover, the “% Activity” value in test [1] was 0%. Besides, the IC50 in test [2] (setting [3]) came to 317 nM.
For the molecule `CC(O)(CS(C)(=O)=O)c1cc2cc([N+](=O)[O-])c(C(F)(F)F)cc2[nH]1` (centres unmarked) [Compound 148], the “% Activity” value in test [1] is 0%. Moreover, the “% Inhibition, L929 androgen receptor functional assay” value in test [1] (3 µM) is listed as 77%. Besides, the “% Inhibition, COS Binding” value in test [2] came out at 32%. The 50% inhibitory concentration (IC50) in test [2] (setting [3]) was > 2400 nM.
As to `CC(O)(CSc1ccc([N+](=O)[O-])cc1)c1cc2cc(Cl)c(C(F)(F)F)cc2[nH]1` (centres unmarked) [Compound 122], in test [1], the inhibition at 3 µM amounted to 35% and the “% Activity” value was 10%. Moreover, the inhibition at 3 µM in test [2] was determined as 66%. In addition, in test [2] (setting [3]), the IC50 is > 1600 nM.

The values are drawn from US7282507B2, “Indole derivatives as selective androgen receptor modulators (SARMS)” (Janssen Pharmaceutica N.V., priority 2004, dated 2007).
